From US20240067632A1, “WEE1 Degrading Compounds and Uses Thereof” (Bristol-Myers Squibb Company, priority 2022, published 2024)

What was measured:
MKN45 cells = experiment: MKN45 cell proliferation assay (Cell-Titer-Glo, 120 h); format: cell-based; conditions: for EC50: Homo sapiens, MKN-45, 120 h, Cell-Titer-Glo, growth inhibition, read-out: MKN45 Cell Prolif. 120 hr (EC50); for MKN45 Cell Prolif. 120 hr (Ymin-Obs): minimal percent of DMSO control observed in the concentrations tested
How it was run: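 Cells seeded at 400/well onto pre-printed 10-point half-log dilutions (top 1 or 10 uM, 0.1% DMSO final), in triplicate, and grown 120 h at 37 C. Viability by Cell-Titer-Glo luminescence, blank-subtracted and normalised to DMSO; EC50 from four-parameter logistic fit, with observed minimal % of control recorded as Ymin-obs.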

WEE1 = target: T1, WEE1 (Homo sapiens, UniProt P30291+Q96SW2); experiment: WEE1-ePL degradation assay (LentiX-WEE1-ePL-GSPT1-ND cells, InCELL Hunter luminescence, 4 h); format: cell-based; conditions: 293T-LentiX WEE1-ePL cells; for 293T-LentiX WEE1-ePL Degradation 4 hr (Ymin): lower limit of the fit (0 = luciferase inhibitor, Ymax = DMSO control); for DC50: read-out: 293T-LentiX WEE1-ePL Degradation 4 hr (EC50)
T1 construct: C-terminal ePL-tagged (DiscoverX, Fremont, CA) full-length WEE1 expression construct; expressed in transfected cells; host or cells: LentiX-HEK293T (Invitrogen), lentiviral transduction; co-expressing GSPT1-GN (G576N, lacking the first 158 amino acids)
How it was run: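 HEK293T cells stably expressing C-terminal ePL-tagged full-length WEE1, 2500 cells/well, treated 4 h at 37° C with a 10-point 3-fold series from 1 or 10 uM. Remaining WEE1-ePL read by InCELL Hunter luminescence after 30 min. EC50 came from a four-parameter logistic fit, with Ymax set from DMSO control.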

O=C1CCC(N2Cc3cc(O[C@H]4CCN(Cc5ccc6nc(C7CCOCC7)ncc6c5)C4)ccc3C2=O)C(=O)N1 (stereo partly drawn) [3-(5-{[(3S)-1-{[2-(oxan-4-yl)quinazolin-6-yl]methyl}pyrrolidin-3-yl]oxy}-1-oxo-2,3-dihydro-1H-isoindol-2-yl)piperidine-2,6-dione]
EC50 (MKN45 cells): 21.4 nM
MKN45 Cell Prolif. 120 hr (Ymin-Obs) (MKN45 cells): 6.11
293T-LentiX WEE1-ePL Degradation 4 hr (Ymin) (WEE1): 30.5
DC50 (WEE1): 32.6 nM

O=C1CCC(N2Cc3cc(O[C@H]4CCN(Cc5ccc6nc(C7CCOCC7)ccc6c5)C4)ccc3C2=O)C(=O)N1 (stereo partly drawn) [3-(5-{[(3S)-1-{[2-(oxan-4-yl)quinolin-6-yl]methyl}pyrrolidin-3-yl]oxy}-1-oxo-2,3-dihydro-1H-isoindol-2-yl)piperidine-2,6-dione]
EC50 (MKN45 cells): 4.9 nM
MKN45 Cell Prolif. 120 hr (Ymin-Obs) (MKN45 cells): 12.83
293T-LentiX WEE1-ePL Degradation 4 hr (Ymin) (WEE1): 32.6
DC50 (WEE1): 2.83 nM

O=C1CCC(N2Cc3cc(O[C@H]4CCN(Cc5ccc6nc(OC7CCOCC7)ccc6c5)C4)ccc3C2=O)C(=O)N1 (stereo partly drawn) [3-(5-{[(3S)-1-{[2-(oxan-4-yloxy)quinolin-6-yl]methyl}pyrrolidin-3-yl]oxy}-1-oxo-2,3-dihydro-1H-isoindol-2-yl)piperidine-2,6-dione]
EC50 (MKN45 cells): 9.83 nM
MKN45 Cell Prolif. 120 hr (Ymin-Obs) (MKN45 cells): 13.54
293T-LentiX WEE1-ePL Degradation 4 hr (Ymin) (WEE1): 33
DC50 (WEE1): 4.52 nM

O=C1CCC(N2Cc3cc(O[C@H]4CCN(Cc5ccc6nc(C7COC7)ncc6c5)C4)ccc3C2=O)C(=O)N1 (stereo partly drawn) [3-(5-{[(3S)-1-{[2-(oxetan-3-yl)quinazolin-6-yl]methyl}pyrrolidin-3-yl]oxy}-1-oxo-2,3-dihydro-1H-isoindol-2-yl)piperidine-2,6-dione]
EC50 (MKN45 cells): 16.7 nM
MKN45 Cell Prolif. 120 hr (Ymin-Obs) (MKN45 cells): 7.8
293T-LentiX WEE1-ePL Degradation 4 hr (Ymin) (WEE1): 30
DC50 (WEE1): 16.8 nM

O=C1CCC(N2Cc3cc(O[C@H]4CCN(Cc5ccc6nc(C7COC7)ccc6c5)C4)ccc3C2=O)C(=O)N1 (stereo partly drawn) [3-(5-{[(3S)-1-{[2-(oxetan-3-yl)quinolin-6-yl]methyl}pyrrolidin-3-yl]oxy}-1-oxo-2,3-dihydro-1H-isoindol-2-yl)piperidine-2,6-dione]
EC50 (MKN45 cells): 11.2 nM
MKN45 Cell Prolif. 120 hr (Ymin-Obs) (MKN45 cells): 10.08
293T-LentiX WEE1-ePL Degradation 4 hr (Ymin) (WEE1): 33
DC50 (WEE1): 3.79 nM

O=C1CCC(N2Cc3cc(O[C@H]4CCN(Cc5ccc6ncc(C(F)F)cc6c5)C4)ccc3C2=O)C(=O)N1 (stereo partly drawn) [3-(5-{[(3S)-1-{[3-(difluoromethyl)quinolin-6-yl]methyl}pyrrolidin-3-yl]oxy}-1-oxo-2,3-dihydro-1H-isoindol-2-yl)piperidine-2,6-dione]
EC50 (MKN45 cells): 14.4 nM
MKN45 Cell Prolif. 120 hr (Ymin-Obs) (MKN45 cells): 11.04
293T-LentiX WEE1-ePL Degradation 4 hr (Ymin) (WEE1): 33
DC50 (WEE1): 3.38 nM

COCc1cnc2ccc(CN3CC[C@H](Oc4ccc5c(c4)CN(C4CCC(=O)NC4=O)C5=O)C3)cc2c1 (stereo partly drawn) [3-(5-{[(3S)-1-{[3-(methoxymethyl)quinolin-6-yl]methyl}pyrrolidin-3-yl]oxy}-1-oxo-2,3-dihydro-1H-isoindol-2-yl)piperidine-2,6-dione]
EC50 (MKN45 cells): 11.1 nM
MKN45 Cell Prolif. 120 hr (Ymin-Obs) (MKN45 cells): 7.64
293T-LentiX WEE1-ePL Degradation 4 hr (Ymin) (WEE1): 33
DC50 (WEE1): 4.28 nM

CNc1cnc2ccc(CN3CC[C@H](Oc4ccc5c(c4)CN(C4CCC(=O)NC4=O)C5=O)C3)cc2c1 (stereo partly drawn) [3-(5-{[(3S)-1-{[3-(methylamino)quinolin-6-yl]methyl}pyrrolidin-3-yl]oxy}-1-oxo-2,3-dihydro-1H-isoindol-2-yl)piperidine-2,6-dione]
EC50 (MKN45 cells): 204 nM
MKN45 Cell Prolif. 120 hr (Ymin-Obs) (MKN45 cells): 16.86
293T-LentiX WEE1-ePL Degradation 4 hr (Ymin) (WEE1): 34
DC50 (WEE1): 18.1 nM

O=C1CCC(N2Cc3cc(O[C@H]4CCN(Cc5ccc6ncc(N7CCOCC7)cc6c5)C4)ccc3C2=O)C(=O)N1 (stereo partly drawn) [3-(5-{[(3S)-1-{[3-(morpholin-4-yl)quinolin-6-yl]methyl}pyrrolidin-3-yl]oxy}-1-oxo-2,3-dihydro-1H-isoindol-2-yl)piperidine-2,6-dione]
EC50 (MKN45 cells): 2.96 nM
MKN45 Cell Prolif. 120 hr (Ymin-Obs) (MKN45 cells): 7.83
293T-LentiX WEE1-ePL Degradation 4 hr (Ymin) (WEE1): 27
DC50 (WEE1): 3.19 nM

O=C1CCC(N2Cc3cc(O[C@H]4CCN(Cc5ccc6ncc(C7COC7)cc6c5)C4)ccc3C2=O)C(=O)N1 (stereo partly drawn) [3-(5-{[(3S)-1-{[3-(oxetan-3-yl)quinolin-6-yl]methyl}pyrrolidin-3-yl]oxy}-1-oxo-2,3-dihydro-1H-isoindol-2-yl)piperidine-2,6-dione]
EC50 (MKN45 cells): 5.04 nM
MKN45 Cell Prolif. 120 hr (Ymin-Obs) (MKN45 cells): 8.08
293T-LentiX WEE1-ePL Degradation 4 hr (Ymin) (WEE1): 30
DC50 (WEE1): 4.67 nM

[2H]c1nc2ccc(CN3CCC(Oc4ccc5c(c4)CN(C4CCC(=O)NC4=O)C5=O)C3)cc2cc1F [3-(5-{[(3S)-1-{[3-fluoro(2-^2H)quinolin-6-yl]methyl}pyrrolidin-3-yl]oxy}-1-oxo-2,3-dihydro-1H-isoindol-2-yl)piperidine-2,6-dione]
EC50 (MKN45 cells): 94.9 nM
MKN45 Cell Prolif. 120 hr (Ymin-Obs) (MKN45 cells): 21.68
293T-LentiX WEE1-ePL Degradation 4 hr (Ymin) (WEE1): 35
DC50 (WEE1): 3.57 nM

Cc1nc(N2CCOCC2)nc2ccc(CN3CC[C@H](Oc4ccc5c(c4)CN(C4CCC(=O)NC4=O)C5=O)C3)cc12 (stereo partly drawn) [3-(5-{[(3S)-1-{[4-methyl-2-(morpholin-4-yl)quinazolin-6-yl]methyl}pyrrolidin-3-yl]oxy}-1-oxo-2,3-dihydro-1H-isoindol-2-yl)piperidine-2,6-dione]
EC50 (MKN45 cells): 9.28 nM
MKN45 Cell Prolif. 120 hr (Ymin-Obs) (MKN45 cells): 7.12
293T-LentiX WEE1-ePL Degradation 4 hr (Ymin) (WEE1): 36
DC50 (WEE1): 5.37 nM

O=C1CCC(N2Cc3cc(O[C@H]4CCN(Cc5ccc6nc(C7CCOCC7)ccc6c5F)C4)ccc3C2=O)C(=O)N1 (stereo partly drawn) [3-(5-{[(3S)-1-{[5-fluoro-2-(oxan-4-yl)quinolin-6-yl]methyl}pyrrolidin-3-yl]oxy}-1-oxo-2,3-dihydro-1H-isoindol-2-yl)piperidine-2,6-dione]
EC50 (MKN45 cells): 1.29 nM
MKN45 Cell Prolif. 120 hr (Ymin-Obs) (MKN45 cells): 10.02
293T-LentiX WEE1-ePL Degradation 4 hr (Ymin) (WEE1): 32
DC50 (WEE1): 1.33 nM

COCc1ccc2nc(CN3CC[C@H](Oc4ccc5c(c4)CN(C4CCC(=O)NC4=O)C5=O)C3)ccc2c1 (stereo partly drawn) [3-(5-{[(3S)-1-{[6-(methoxymethyl)quinolin-2-yl]methyl}pyrrolidin-3-yl]oxy}-1-oxo-2,3-dihydro-1H-isoindol-2-yl)piperidine-2,6-dione]
EC50 (MKN45 cells): 89.6 nM
MKN45 Cell Prolif. 120 hr (Ymin-Obs) (MKN45 cells): 26.02
293T-LentiX WEE1-ePL Degradation 4 hr (Ymin) (WEE1): 46
DC50 (WEE1): 11.7 nM

O=C1CCC(N2Cc3cc(O[C@H]4CCN(Cc5cc6cc(C7CCOCC7)ccc6cn5)C4)ccc3C2=O)C(=O)N1 (stereo partly drawn) [3-(5-{[(3S)-1-{[6-(oxan-4-yl)isoquinolin-3-yl]methyl}pyrrolidin-3-yl]oxy}-1-oxo-2,3-dihydro-1H-isoindol-2-yl)piperidine-2,6-dione]
EC50 (MKN45 cells): 12.3 nM
MKN45 Cell Prolif. 120 hr (Ymin-Obs) (MKN45 cells): 13.12
293T-LentiX WEE1-ePL Degradation 4 hr (Ymin) (WEE1): 33.5
DC50 (WEE1): 5.55 nM

CC(C)(O)c1ccc2cc(CN3CC[C@H](Oc4ccc5c(c4)CN(C4CCC(=O)NC4=O)C5=O)C3)ncc2c1 (stereo partly drawn) [3-(5-{[(3S)-1-{[7-(2-hydroxypropan-2-yl)isoquinolin-3-yl]methyl}pyrrolidin-3-yl]oxy}-1-oxo-2,3-dihydro-1H-isoindol-2-yl)piperidine-2,6-dione]
EC50 (MKN45 cells): 16.2 nM
MKN45 Cell Prolif. 120 hr (Ymin-Obs) (MKN45 cells): 7.18
293T-LentiX WEE1-ePL Degradation 4 hr (Ymin) (WEE1): 31
DC50 (WEE1): 5.41 nM

COC(C)(C)c1ccc2cc(CN3CC[C@H](Oc4ccc5c(c4)CN(C4CCC(=O)NC4=O)C5=O)C3)ncc2c1 (stereo partly drawn) [3-(5-{[(3S)-1-{[7-(2-methoxypropan-2-yl)isoquinolin-3-yl]methyl}pyrrolidin-3-yl]oxy}-1-oxo-2,3-dihydro-1H-isoindol-2-yl)piperidine-2,6-dione]
EC50 (MKN45 cells): 6.04 nM
MKN45 Cell Prolif. 120 hr (Ymin-Obs) (MKN45 cells): 11.51
293T-LentiX WEE1-ePL Degradation 4 hr (Ymin) (WEE1): 32
DC50 (WEE1): 1.21 nM

COCc1ccc2cc(CN3CC[C@H](Oc4ccc5c(c4)CN(C4CCC(=O)NC4=O)C5=O)C3)ncc2c1 (stereo partly drawn) [3-(5-{[(3S)-1-{[7-(methoxymethyl)isoquinolin-3-yl]methyl}pyrrolidin-3-yl]oxy}-1-oxo-2,3-dihydro-1H-isoindol-2-yl)piperidine-2,6-dione]
EC50 (MKN45 cells): 2.85 nM
MKN45 Cell Prolif. 120 hr (Ymin-Obs) (MKN45 cells): 8.95
293T-LentiX WEE1-ePL Degradation 4 hr (Ymin) (WEE1): 30
DC50 (WEE1): 1.42 nM

CNc1ccc2cc(CN3CC[C@H](Oc4ccc5c(c4)CN(C4CCC(=O)NC4=O)C5=O)C3)ncc2c1 (stereo partly drawn) [3-(5-{[(3S)-1-{[7-(methylamino)isoquinolin-3-yl]methyl}pyrrolidin-3-yl]oxy}-1-oxo-2,3-dihydro-1H-isoindol-2-yl)piperidine-2,6-dione]
EC50 (MKN45 cells): 42.1 nM
MKN45 Cell Prolif. 120 hr (Ymin-Obs) (MKN45 cells): 12.46
293T-LentiX WEE1-ePL Degradation 4 hr (Ymin) (WEE1): 32
DC50 (WEE1): 9.01 nM

O=C1CCC(N2Cc3cc(O[C@H]4CCN(Cc5cc6ccc(N7CCOCC7)cc6cn5)C4)ccc3C2=O)C(=O)N1 (stereo partly drawn) [3-(5-{[(3S)-1-{[7-(morpholin-4-yl)isoquinolin-3-yl]methyl}pyrrolidin-3-yl]oxy}-1-oxo-2,3-dihydro-1H-isoindol-2-yl)piperidine-2,6-dione]
EC50 (MKN45 cells): 3.17 nM
MKN45 Cell Prolif. 120 hr (Ymin-Obs) (MKN45 cells): 6.72
293T-LentiX WEE1-ePL Degradation 4 hr (Ymin) (WEE1): 36
DC50 (WEE1): 3.82 nM

O=C1CCC(N2Cc3cc(O[C@H]4CCN(Cc5cc6ccc(C7CCOCC7)cc6cn5)C4)ccc3C2=O)C(=O)N1 (stereo partly drawn) [3-(5-{[(3S)-1-{[7-(oxan-4-yl)isoquinolin-3-yl]methyl}pyrrolidin-3-yl]oxy}-1-oxo-2,3-dihydro-1H-isoindol-2-yl)piperidine-2,6-dione]
EC50 (MKN45 cells): 2.09 nM
MKN45 Cell Prolif. 120 hr (Ymin-Obs) (MKN45 cells): 8.822
293T-LentiX WEE1-ePL Degradation 4 hr (Ymin) (WEE1): 29.75
DC50 (WEE1): 1.46 nM
